The values below are quoted from earlier work in patent publication US9750812B2, “Lipid based pharmaceutical preparations for oral and topical application; their compositions, methods, and uses thereof” (JINA PHARMACEUTICALS, INC., priority 2008, dated 2017).

For `CC(C)(C)NC(=O)[C@H]1CC[C@H]2[C@@H]3CC[C@H]4NC(=O)C=C[C@]4(C)[C@H]3CC[C@]12C` [finasteride, (5α, 17β)-N-(1,1-dimethylethyl)-3-oxo-4-azaandrost-1-ene-17-carboxamide], for the setting “organic solvents such as ethanol and methanol”, the “solubility in organic solvents” value was “soluble”. For the same compound, the solubility in water result (water) is given as “practically insoluble”.
